# Patent EP3057951B1, “METHYLENE LINKED QUINOLINYL MODULATORS OF ROR-GAMMA-T” (Janssen Pharmaceutica NV, priority 2013, dated 2015)
# Structures can show the parent of a compound that is named as a salt.
# Target: T1, wild type human RORγt ligand binding domain (RORyt LBD) (Homo sapiens, UniProt P51449)
# T1 construct: His-tag (N); TurboTEV protease cleavage site (ENLYFQG) (N); made in house; host or cells: E. coli (pHIS1, modified pET vector)
# T1 sequence (P51449 258-518): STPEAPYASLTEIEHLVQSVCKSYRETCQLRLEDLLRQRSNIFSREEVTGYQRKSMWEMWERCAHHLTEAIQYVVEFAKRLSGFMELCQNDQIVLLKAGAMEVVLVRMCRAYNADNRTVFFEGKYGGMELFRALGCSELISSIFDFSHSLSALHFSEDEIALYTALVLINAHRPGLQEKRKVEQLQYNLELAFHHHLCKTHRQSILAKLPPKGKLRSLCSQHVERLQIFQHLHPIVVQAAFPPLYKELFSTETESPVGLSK
# Test: RORγt ThermoFluor assay (thermal shift, binding affinity KD)
# Settings: not given
row,Kd [nM],Structure (SMILES)
1,1.9,"CCc1nc2ccc(C(O)(c3cnnn3C)C3CN(C(C)=O)C3)cc2c(C#N)c1Cc1ccc(C(F)(F)F)cc1 (single isomer, unassigned) [Example 37, 6-((1-Acetylazetidin-3-yl)(hydroxy)(1-methyl-1H-1,2,3-triazol-5-yl)methyl)-2-ethyl-3-(4-(trifluoromethyl)benzyl)quinoline4-carbonitrile]"
2,370,"COc1nc2ccc(C(O)(c3ccccn3)c3cncn3C)cc2c(Cl)c1Cc1ccc(S(C)(=O)=O)cc1 (single isomer, unassigned) [Example 58c, (4-Chloro-2-methoxy-3-(4-(methylsulfonyl)benzyl)quinolin-6-yl)(1-methyl-1H-imidazol-5-yl)(pyridin-2-yl)methanol]"
3,0.03,"CCc1nc2ccc(C(O)(c3cnc(C)n3C)C3CCOCC3)cc2c(Cl)c1Cc1ccc(C(F)(F)F)cc1 (single isomer, unassigned) [Example 34b, (4-Chloro-2-ethyl-3-(4-(trifluoromethyl)benzyl)quinolin-6-yl)(1,2-dimethyl-1H-imidazol-5-yl)(tetrahydro-2H-pyran-4-yl)methanol]"
4,0.6,"COc1nc2ccc(C(O)(c3c(C)noc3C)c3cnnn3C)cc2c(Cl)c1Cc1ccc(C(F)(F)F)cc1 (centres unmarked) [Example 93, (4-Chloro-2-methoxy-3-(4-(trifluoromethyl)benzyl)quinolin-6-yl)(3,5-dimethylisoxazol-4-yl)(1-methyl-1H-1,2,3-triazol-5-yl)methanol]"
5,0.2,"COc1nc2ccc(C(O)(c3cnnn3C)C3CN(C(N)=O)C3)cc2c(Cl)c1Cc1ccc(C(F)(F)F)cc1 (centres unmarked) [Example 91, 3-((4-Chloro-2-methoxy-3-(4-(trifluoromethyl)benzyl)quinolin-6-yl)(hydroxy)(1-methyl-1H-1,2,3-triazol-5-yl)methyl)azetidine-1-carboxamide]"
6,800,"COc1nc2ccc(C(O)(c3ccccn3)c3cncn3C)cc2c(Cl)c1Cc1cc2ccccc2s1 (single isomer, unassigned) [Example 59c, (3-(Benzo[b]thiophen-2-ylmethyl)-4-chloro-2-methoxyquinolin-6-yl)(1-methyl-1H-imidazol-5-yl)(pyridin-2-yl)methanol]"
7,0.092,"Cc1nc2ccc(C(O)(c3ccnc(C(F)(F)F)c3)c3cncn3C)cc2c(Cl)c1Cc1ccc(C(F)(F)F)cc1 (single isomer, unassigned) [Example 30c, (4-Chloro-2-methyl-3-(4-(trifluoromethyl)benzyl)quinolin-6-yl)(1-methyl-1H-imidazol-5-yl)(2-(trifluoromethyl)pyridin-4-yl)methanol]"
8,0.21,"COc1nc2ccc(C(O)(c3cnc(C)n3C)c3cnc(C)n3C)cc2c(Cl)c1Cc1ccc(C(F)(F)F)nc1 [Example 45, (4-Chloro-2-methoxy-3-((6-(trifluoromethyl)pyridin-3-yl)methyl)quinolin-6-yl)bis(1,2-dimethyl-1H-imidazol-5-yl)methanol]"
9,0.86,"CC(=O)N1CC(C(O)(c2ccc3nc(C)c(Cc4ccc(C(F)(F)F)cc4)c(Cl)c3c2)c2cnnn2C)C1 (single isomer, unassigned) [Example 32b, 1-(3-((4-Chloro-2-methyl-3-(4-(trifluoromethyl)benzyl)quinolin-6-yl)(hydroxy)(1-methyl-1H-1,2,3-triazol-5-yl)methyl)azetidin-1-yl)ethanone]"
10,15,"Cc1nc2ccc(C(O)(c3ccc(C(F)(F)F)nc3)c3cncn3C)cc2c(Cl)c1Cc1ccc(C(F)(F)F)cc1 (single isomer, unassigned) [Example 26b, (4-Chloro-2-methyl-3-(4-(trifluoromethyl)benzyl)quinolin-6-yl)(1-methyl-1H-imidazol-5-yl)(6-(trifluoromethyl)pyridin-3-yl)methanol]"
11,0.032,"COc1nc2ccc(C(O)(c3cnc(C)n3C)c3cnc(C)n3C)cc2c(Cl)c1Cc1ccc(C(F)(F)F)s1 [Example 7, (4-Chloro-2-methoxy-3-((5-(trifluoromethyl)thiophen-2-yl)methyl)quinolin-6-yl)bis(1,2-dimethyl-1H-imidazol-5-yl)methanol•TFA]"
12,3.3,"COc1nc2ccc(C(O)(c3ccc(C(F)(F)F)nc3)c3cnnn3C)cc2c(Cl)c1Cc1ccc(C(F)(F)F)cc1 (racemic) [Example 75a, (4-Chloro-2-methoxy-3-(4-(trifluoromethyl)benzyl)quinolin-6-yl)(1-methyl-1H-1,2,3-triazol-5-yl)(6-(trifluoromethyl)pyridin-3-yl)methanol]"
13,580,"COc1nc2ccc(C(O)(c3cnnn3C)C3CN(C)C3)cc2c(Cl)c1Cc1ccc(C(F)(F)F)cc1 (single isomer, unassigned) [Example 90b, (4-Chloro-2-methoxy-3-(4-(trifluoromethyl)benzyl)quinolin-6-yl)(1-methyl-1H-1,2,3-triazol-5-yl)(1-methylazetidin-3-yl)methanol]"
14,0.28,"Cc1nc2ccc(C(O)(c3ccnc(C(F)(F)F)c3)c3cncn3C)cc2c(Cl)c1Cc1ccc(C(F)(F)F)cc1 (centres unmarked) [Example 30a, (4-Chloro-2-methyl-3-(4-(trifluoromethyl)benzyl)quinofin-6-yl)(1-methyl-1H-imidazol-5-yl)(2-(trifluoromethyl)pyridin4-yl)methanol]"
15,3600,"COc1nc2ccc(C(O)(c3ccccn3)c3cncn3C)cc2c(Cl)c1Cc1ccc(S(C)(=O)=O)cc1 (single isomer, unassigned) [Example 58b, (4-Chloro-2-methoxy-3-(4-(methylsulfonyl)benzyl)quinolin-6-yl)(1-methyl-1H-imidazol-5-yl)(pyridin-2-yl)methanol]"
16,0.63,"CC(=O)N1CCC(C(O)(c2ccccc2)c2ccc3nc(C)c(Cc4ccc(C(F)(F)F)cc4)c(Cl)c3c2)CC1 (single isomer, unassigned) [Example 27b, 1-(4-((4-Chloro-2-methyl-3-(4-(trifluoromethyl)benzyl)quinolin-6-yl)(hydroxy)(phenyl)methyl)piperidin-1-yl)ethanone]"
17,3.4,"COc1nc2ccc(C(O)(c3cnnn3C)C3CN(C)C3)cc2c(Cl)c1Cc1ccc(C(F)(F)F)cc1 (single isomer, unassigned) [Example 90c, (4-Chloro-2-methoxy-3-(4-(trifluoromethyl)benzyl)quinolin-6-yl)(1-methyl-1H-1,2,3-triazol-5-yl)(1-methylazetidin-3-yl)methanol]"
18,0.38,"COc1nc2ccc(C(O)(c3ccc(C)nc3C)c3cnc(C)n3C)cc2c(Cl)c1Cc1ccc(C(F)(F)F)nc1 (centres unmarked) [Example 42a, (4-Chloro-2-methoxy-3-((6-(trifluoromethyl)pyridin-3-yl)methyl)quinolin-6-yl)(1,2-dimethyl-1H-imidazol-5-yl)(2,6-dimethylpyridin-3-yl)methanol]"
19,0.009,"CCc1nc2ccc(C(O)(c3cnc(C)n3C)c3cnc(C)n3C)cc2c(C#N)c1Cc1ccc(C(F)(F)F)cc1 [Example 8, 6-(bis(1,2-Dimethyl-1H-imidazol-5-yl)(hydroxy)methyl)-2-ethyl-3-(4-(trifluoromethyl)benzyl)quinoline-4-carbonitrile.TFA]"
20,14,"CC(=O)N1CCC(C(O)(c2ccccc2)c2ccc3nc(C)c(Cc4ccc(C(F)(F)F)cc4)c(Cl)c3c2)CC1 (single isomer, unassigned) [Example 27c, 1-(4-((4-Chloro-2-methyl-3-(4-(trifluoromethyl)benzyl)quinolin-6-yl)(hydroxy)(phenyl)methyl)piperidin-1-yl)ethanone]"
21,1.3,"CC(=O)N1CC(C(O)(c2ccc3nc(C)c(Cc4ccc(C(F)(F)F)cc4)c(Cl)c3c2)c2cnnn2C)C1 (single isomer, unassigned) [Example 32c, 1-(3-((4-Chloro-2-methyl-3-(4-(trifluoromethyl)benzyl)quinolin-6-yl)(hydroxy)(1-methyl-1H-1,2,3-triazol-5-yl)methyl)azetidin-1-yl)ethanone]"
22,0.041,"COc1nc2ccc(C(O)(c3cnc(C)n3C)c3cnc(C)n3C)cc2c(Cl)c1Cc1cccc(C(F)(F)F)c1 [Example 5, (4-Chloro-2-methoxy-3-(3-(trifluoromethyl)benzyl)quinolin-6-yl)bis(1,2-dimethyt-1H-imidazol-5-yt)methanol•TFA]"
23,0.1,"COc1nc2ccc(C(O)(c3cnc(C)n3C)c3cnc(C)n3C)cc2c(Cl)c1Cc1ccc(F)cc1 [Example 67, (4-Chloro-3-(4-fluorobenzyl)-2-methoxyquinolin-6-yl)bis(1,2-dimethyl-1H-imidazol-5-yl)methanol]"
24,160,"Cc1ccc(C(O)(c2ccc3nc(C)c(Cc4ccc(C(F)(F)F)cc4)c(Cl)c3c2)c2cnnn2C)c(C)n1 (single isomer, unassigned) [Example 28b, (4-Chloro-2-methyl-3-(4-(trifluoromethyl)benzyl)quinolin-6-yl)(2,6-dimethylpyridin-3-yl)(1-methyl-1H-1,2,3-triazol-5-yl)methanol]"
25,97,"COCCN(C)c1nc2ccc(C(O)(c3ccc(C(F)(F)F)nc3)c3cncn3C)cc2c(Cl)c1Cc1ccc(-n2cccn2)cc1 (centres unmarked) [Example 128, {4-Chloro-2-[(2-methoxyethyl)(methyl)amino]-3-[4-(1H-pyrazol-1-yl)benzyl]quinolin-6-yl}(1-methyl-1H-imidazol-5-yl)[6-(trifluoromethyl)pyridin-3-yl]methanol]"

# Target: T2, wild type human RORγt LBD (Homo sapiens, UniProt P51449)
# T2 construct: expressed in transfected cells; host or cells: HEK293T
# T2 sequence (P51449 258-518): T1 sequence (P51449 258-518)
# Test: RORγt (LBD) Reporter Assay (GAL4-luciferase, HEK293T cells)
# Format: cell-based
# Settings: HEK-293T, read-out: RORγt (LBD) Reporter Assay, % inhibition @ 6 µM, 6 µM compound concentration
row,inhibition at 6 µM [%],Structure (SMILES)
1,103,"COc1nc2ccc(C(O)(c3ccccn3)c3cncn3C)cc2c(Cl)c1Cc1ccc(-n2cccn2)cc1 (single isomer, unassigned) [Example 64b, (3-(4-(1H-Pyrazol-1-yl)benzyl)-4-chloro-2-methoxyquinolin-6-yl)(1-methyl-1H-imidazol-5-yl)(pyridin-2-yl)methanol]"
